Data from patent US6720346B2, “Thiazole benzamide derivatives and pharmaceutical compositions for inhibiting cell proliferation” (Agouron Pharmaceuticals, Inc., priority 2001, dated 2004).

Legend:
human CDK4/cyclin D3 = molecular target: T1, human CDK4/cyclin D3 (Homo sapiens, UniProt P11802); experiment: Inhibition of CDK4/cyclin D retinoblastoma kinase activity (Ki; % inhibition); format: biochemical; settings: for Ki: apparent Ki, CDK4/cyclin D3, Rb substrate
T1 construct: made in house; host or cells: insect cells co-infected with baculovirus vectors
Summary of the method: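 Radiometric filter-binding read-out: Rb residues 386-928 phosphorylated by 5 nM CDK4/cyclin D3(1-264) from baculovirus-infected insect cells, 25 μM ATP, HEPES pH 7.4, 30 °C. Run 20 min, or 60 min for tight-binding inhibitors. Screening at 30 nM theoretical compound; apparent Ki by competitive-inhibition fitting.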

HCT-116 cell line = experiment: Inhibition of cell growth, MTT tetrazolium salt assay; format: cell-based; settings: for IC50: Homo sapiens, HCT-116, 120 h, MTT, three to five days
Summary of the method: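 Cells in McCoy's 5A medium were given 4 h before compound addition in 0.5% (v/v) DMSO, then incubated 3–5 days at 37 °C, 5% CO2. After 4 h with 0.2 mg/mL MTT, DMSO-solubilized formazan was read at 540 nm; 50% and 90% growth-inhibitory concentrations came from semi-log plots against vehicle controls.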

CDK2/cyclin A = molecular target: T2, CDK2/cyclin A (Homo sapiens, UniProt P24941); experiment: Inhibition of CDK2/cyclin A retinoblastoma kinase activity (Ki; % inhibition); format: biochemical; settings: for Ki: apparent Ki, CDK2/cyclin A, Rb substrate
T2 construct: made in house; host or cells: CDK2: insect cells (baculovirus); cyclin A: E. coli
Summary of the method: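 Apparent Ki values came from fitting concentration-dependent activity data to competitive (or competitive tight-binding) models, and % inhibition from single 30 nM screens of library compounds. Activity was measured as ³²P/³³P incorporation from 25 μM ATP into an Rb substrate by 10 or 19 nM CDK2/delta cyclin A at 30 °C over 60–75 min, pH 7.4.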

[1] = HCT-116 cells, 0.25 μM compound

T1 sequence (P11802 whole entry): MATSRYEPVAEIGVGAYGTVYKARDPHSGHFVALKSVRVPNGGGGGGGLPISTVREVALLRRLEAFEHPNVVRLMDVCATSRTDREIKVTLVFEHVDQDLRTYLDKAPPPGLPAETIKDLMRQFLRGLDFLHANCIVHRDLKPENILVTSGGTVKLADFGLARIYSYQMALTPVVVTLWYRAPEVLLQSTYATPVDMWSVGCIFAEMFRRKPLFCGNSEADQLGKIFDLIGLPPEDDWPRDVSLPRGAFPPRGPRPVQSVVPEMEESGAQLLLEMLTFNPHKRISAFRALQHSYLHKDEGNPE
T1 sequence (P30281 1-264 partner limits assumed): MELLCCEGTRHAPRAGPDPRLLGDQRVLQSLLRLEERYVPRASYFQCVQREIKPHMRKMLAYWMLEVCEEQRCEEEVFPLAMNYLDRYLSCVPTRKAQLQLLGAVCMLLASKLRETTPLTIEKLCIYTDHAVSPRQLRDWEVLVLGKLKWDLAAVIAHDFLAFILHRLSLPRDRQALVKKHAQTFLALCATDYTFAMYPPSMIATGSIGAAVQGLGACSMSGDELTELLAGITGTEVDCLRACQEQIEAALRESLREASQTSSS

SMILES	CDK4 % Inhibition at 0.03 μM (human CDK4/cyclin D3; 0.03 μM compound)	HCT-116 % Inhibition at 0.1 μM (HCT-116 cell line; HCT-116 cells, 0.1 μM compound)	HCT-116 % Inhibition at 0.25 μM (HCT-116 cell line; [1])	CDK2 % Inhibition at 0.03 μM (CDK2/cyclin A; 0.03 μM compound)	also measured
Nc1nc(Nc2ccc(C(=O)Nc3ccc(C(F)(F)F)cc3)cc2)sc1C(=O)c1c(F)cccc1F [Example G368]	−3%	25%	50%	3%	
Nc1nc(Nc2ccc(C(=O)NCCCN3CCCC3=O)cc2)sc1C(=O)c1c(F)cccc1F [Example G88]					CDK4 % Inhibition at 0.03 μM (human CDK4/cyclin D3; at 0.03 μM): 6%; HCT-116 % Inhibition at 0.1 μM (HCT-116 cell line; HCT-116, at 0.1 μM): 24%; HCT-116 % Inhibition at 0.25 μM (HCT-116 cell line; HCT-116, at 0.25 μM): 49%; CDK2 % Inhibition at 0.03 μM (CDK2/cyclin A; at 0.03 μM): −23%
Nc1nc(Nc2ccc(C(=O)N3CCC(O)CC3)cc2)sc1C(=O)c1c(F)cccc1F [Example G56]					CDK4 % Inhibition at 0.03 μM (human CDK4/cyclin D3; at 0.03 μM): 10%; HCT-116 % Inhibition at 0.25 μM (HCT-116 cell line; HCT-116, at 0.25 μM): 59%; CDK2 % Inhibition at 0.03 μM (CDK2/cyclin A; at 0.03 μM): 24%
CN(C)C(C)(C)CNC(=O)c1ccc(Nc2nc(N)c(C(=O)c3c(F)cccc3F)s2)cc1 [Example A12, 4-[4-Amino-5-(2,6-difluoro-benzoyl)-thiazol-2-ylamino]-N-(2-dimethylamino-2-methyl-propyl)-benzamide]					Ki (human CDK4/cyclin D3): 20 nM; IC50 (HCT-116 cell line): 130 nM; Ki (CDK2/cyclin A): 91 nM
CCOC(=O)c1cccc(NC(=O)c2ccc(Nc3nc(N)c(C(=O)c4c(F)cccc4F)s3)cc2)c1 [Example G24]					CDK4 % Inhibition at 0.03 μM (human CDK4/cyclin D3; at 0.03 μM): 11%; HCT-116 % Inhibition at 0.25 μM (HCT-116 cell line; HCT-116, at 0.25 μM): 58%; CDK2 % Inhibition at 0.03 μM (CDK2/cyclin A; at 0.03 μM): 7%
CCN(C)C(=O)c1ccc(Nc2nc(N)c(C(=O)c3c(F)cccc3F)s2)cc1 [Example G290]	−2%	2%	39%	−12%	
Nc1nc(Nc2ccc(C(=O)NCCOCCO)cc2)sc1C(=O)c1c(F)cccc1F [Example G264]	13%	22%	53%	−9%	
Nc1nc(Nc2ccc(C(=O)NCCc3c[nH]c4ccccc34)cc2)sc1C(=O)c1c(F)cccc1F [Example G271]	27%	8%	49%	32%	
Nc1nc(Nc2ccc(C(=O)NCCc3ccc(Cl)c(Cl)c3)cc2)sc1C(=O)c1c(F)cccc1F [Example G211]	23%	13%	45%	23%	
Nc1nc(Nc2ccc(C(=O)Nc3cccc(F)c3)cc2)sc1C(=O)c1c(F)cccc1F [Example G289]	9%	7%	62%	−6%	
Nc1nc(Nc2ccc(C(=O)NCCc3ccc(F)cc3)cc2)sc1C(=O)c1c(F)cccc1F [Example G355]	13%	28%	54%	29%	
Nc1nc(Nc2ccc(C(=O)NCCSCCO)cc2)sc1C(=O)c1c(F)cccc1F [Example G366]	8%	26%	55%	1%	
COc1ccc(N2CCN(C(=O)c3ccc(Nc4nc(N)c(C(=O)c5c(F)cccc5F)s4)cc3)CC2)cc1 [Example G240]	27%	15%	52%	11%	
C=CCN1CCN(C(=O)c2ccc(Nc3nc(N)c(C(=O)c4c(F)cccc4F)s3)cc2)CC1 [Example G21]					CDK4 % Inhibition at 0.03 μM (human CDK4/cyclin D3; at 0.03 μM): 14%; HCT-116 % Inhibition at 0.25 μM (HCT-116 cell line; HCT-116, at 0.25 μM): 46%; CDK2 % Inhibition at 0.03 μM (CDK2/cyclin A; at 0.03 μM): 3%
CN(Cc1ccccc1Cl)C(=O)c1ccc(Nc2nc(N)c(C(=O)c3c(F)cccc3F)s2)cc1 [Example G259]	−20%	21%	46%	−30%	
NC(=O)C1CCN(C(=O)c2ccc(Nc3nc(N)c(C(=O)c4c(F)cccc4F)s3)cc2)CC1 [Example G43]					CDK4 % Inhibition at 0.03 μM (human CDK4/cyclin D3; at 0.03 μM): 12%; HCT-116 % Inhibition at 0.25 μM (HCT-116 cell line; HCT-116, at 0.25 μM): 62%; CDK2 % Inhibition at 0.03 μM (CDK2/cyclin A; at 0.03 μM): 5%
COc1ccc(C)c(NC(=O)c2ccc(Nc3nc(N)c(C(=O)c4c(F)cccc4F)s3)cc2)c1 [Example A19, 4-[4-Amino-5-(2,6-difluoro-benzoyl)-thiazol-2-ylamino]-N-(5-methoxy-2-methyl-phenyl)-benzamide]					Ki (human CDK4/cyclin D3): 105 nM; IC50 (HCT-116 cell line): 110 nM; Ki (CDK2/cyclin A): 64 nM

SMILES	CDK4 % Inhibition at 0.03 μM (human CDK4/cyclin D3; 0.03 μM compound)	HCT-116 % Inhibition at 0.1 μM (HCT-116 cell line; HCT-116 cells, 0.1 μM compound)	HCT-116 % Inhibition at 0.25 μM (HCT-116 cell line; [1])	CDK2 % Inhibition at 0.03 μM (CDK2/cyclin A; 0.03 μM compound)	also measured
Nc1nc(Nc2ccc(C(=O)NCCCc3ccccc3)cc2)sc1C(=O)c1c(F)cccc1F [Example G325]	23%	6%	51%	13%	
CC1(C)CCCC(C)(C)N1CCNC(=O)c1ccc(Nc2nc(N)c(C(=O)c3c(F)cccc3F)s2)cc1 [Example A53, 4-[4-Amino-5-(2,6-difluoro-benzoyl)-thiazol-2-ylamino]-N-[2-(2,2,6,6-tetramethyl-piperidin-1-yl)-ethyl]-benzamide]					Ki (human CDK4/cyclin D3): 4 nM; IC50 (HCT-116 cell line): 150 nM; Ki (CDK2/cyclin A): 120 nM
CN1CCCC1CCNC(=O)c1ccc(Nc2nc(N)c(C(=O)c3c(F)cccc3F)s2)cc1 (stereo not shown) [Example G147]					CDK4 % Inhibition at 0.03 μM (human CDK4/cyclin D3; at 0.03 μM): 35%; HCT-116 % Inhibition at 0.1 μM (HCT-116 cell line; HCT-116, at 0.1 μM): 0%; HCT-116 % Inhibition at 0.25 μM (HCT-116 cell line; HCT-116, at 0.25 μM): 65%; CDK2 % Inhibition at 0.03 μM (CDK2/cyclin A; at 0.03 μM): 10%
Nc1nc(Nc2ccc(C(=O)NCc3ccc(C(F)(F)F)cc3)cc2)sc1C(=O)c1c(F)cccc1F [Example G261]	27%	26%	69%	30%	
CCN1CCC[C@H]1CNC(=O)c1ccc(Nc2nc(N)c(C(=O)c3c(F)cccc3F)s2)cc1 [Example A38, 4-[4-Amino-5-(2,6-difluoro-benzoyl)-thiazol-2-ylamino]-N-(1-ethyl-pyrrolidin-2S-yl-methyl)-benzamide]					Ki (human CDK4/cyclin D3): 24 nM; IC50 (HCT-116 cell line): 100 nM; Ki (CDK2/cyclin A): 140 nM
COc1ccc(NC(=O)c2ccc(Nc3nc(N)c(C(=O)c4c(F)cccc4F)s3)cc2)cc1Cl [Example G59]					CDK4 % Inhibition at 0.03 μM (human CDK4/cyclin D3; at 0.03 μM): 3%; HCT-116 % Inhibition at 0.25 μM (HCT-116 cell line; HCT-116, at 0.25 μM): 53%; CDK2 % Inhibition at 0.03 μM (CDK2/cyclin A; at 0.03 μM): 25%
CC(C)(C)C1CCC(NC(=O)c2ccc(Nc3nc(N)c(C(=O)c4c(F)cccc4F)s3)cc2)CC1 (stereo not shown) [Example G267]	−14%	24%	44%	−23%	
Nc1nc(Nc2ccc(C(=O)NCc3ccc(F)cc3F)cc2)sc1C(=O)c1c(F)cccc1F [Example G301]	25%	18%	79%	13%	
Cc1ccc(NC(=O)c2ccc(Nc3nc(N)c(C(=O)c4c(F)cccc4F)s3)cc2)c(F)c1 [Example G284]	−12%	4%	69%	−30%	
CN(CC(O)c1ccccc1)C(=O)c1ccc(Nc2nc(N)c(C(=O)c3c(F)cccc3F)s2)cc1 (stereo not shown) [Example G225]	41%	0%	51%	36%	
CC(=O)N1CCC[C@H]1CNC(=O)c1ccc(Nc2nc(N)c(C(=O)c3c(F)cccc3F)s2)cc1 [Example A10, 4-[4-Amino-5-(2,6-difluoro-benzoyl)-thiazol-2S-ylamino]-N-(1-Acetyl-pyrrolidin-2S-ylmethyl)-benzamide]					Ki (human CDK4/cyclin D3): 49 nM; IC50 (HCT-116 cell line): 1600 nM; Ki (CDK2/cyclin A): 290 nM
Cc1cc(NC(=O)c2ccc(Nc3nc(N)c(C(=O)c4c(F)cccc4F)s3)cc2)ccc1Cl [Example G38]					CDK4 % Inhibition at 0.03 μM (human CDK4/cyclin D3; at 0.03 μM): 7%; HCT-116 % Inhibition at 0.25 μM (HCT-116 cell line; HCT-116, at 0.25 μM): 65%; CDK2 % Inhibition at 0.03 μM (CDK2/cyclin A; at 0.03 μM): 3%
Nc1nc(Nc2ccc(C(=O)N3CCc4ccccc4C3)cc2)sc1C(=O)c1c(F)cccc1F [Example G79]					CDK4 % Inhibition at 0.03 μM (human CDK4/cyclin D3; at 0.03 μM): 10%; HCT-116 % Inhibition at 0.25 μM (HCT-116 cell line; HCT-116, at 0.25 μM): 51%; CDK2 % Inhibition at 0.03 μM (CDK2/cyclin A; at 0.03 μM): 2%
Nc1nc(Nc2ccc(C(=O)Nc3ccc(Cl)cc3CO)cc2)sc1C(=O)c1c(F)cccc1F [Example G341]	10%	23%	93%	−11%	
CC(C)C[C@@H](CO)NC(=O)c1ccc(Nc2nc(N)c(C(=O)c3c(F)cccc3F)s2)cc1 [Example G333]	−5%	4%	51%	−16%	
Nc1nc(Nc2ccc(C(=O)NCCCn3ccnc3)cc2)sc1C(=O)c1c(F)cccc1F [Example G143]					CDK4 % Inhibition at 0.03 μM (human CDK4/cyclin D3; at 0.03 μM): 27%; HCT-116 % Inhibition at 0.1 μM (HCT-116 cell line; HCT-116, at 0.1 μM): 0%; HCT-116 % Inhibition at 0.25 μM (HCT-116 cell line; HCT-116, at 0.25 μM): 65%; CDK2 % Inhibition at 0.03 μM (CDK2/cyclin A; at 0.03 μM): 2%
Nc1nc(Nc2ccc(C(=O)NC(CO)CSCc3ccccc3)cc2)sc1C(=O)c1c(F)cccc1F (stereo not shown) [Example G383]	−10%	33%	51%	15%	
